Several values for one entry are separate records, joined by “and”; a condition that tells them apart may be missing. Equal values may be shown once. Read-outs that look alike come from different tables or passages of the source.
Columns and labels:
[1] = system: P-selectin exposure on washed platelets; assay: ADP-stimulated P-selectin exposure (flow cytometry); type: cell-based, rat; conditions: ADP 10 μM; for P-selectin exposure: mean ± SD, n = 3, 86.06 ± 9.05% without naringenin; for P-selectin (%): single replicates
Procedure: Flow cytometric assays were performed as described previously ([Wang et al., 2019]). ADP-stimulated P-selectin exposure and fibrinogen binding were determined in washed platelets. […] The platelets were immediately incubated with PE-labeled CD62P or FITC-labeled fibrinogen in the dark at room temperature for 15 min. The cells were finally fixed with 1% (v/v) paraformaldehyde prior to analysis using an Accuri C6 flow cytometer (BD Biosciences, United States).

PI3Kp110β = assay: Immunoblotting of PI3Kp110β in ADP-stimulated washed platelets; type: cell-based, rat; conditions: ADP 10 μmol/L, single replicates; for PI3Kp110β / GAPDH: raw data
Procedure: For in vitro platelet aggregation, aliquots of washed platelets were preincubated with vehicle or various concentrations of naringenin for 5 min and stimulated with ADP (10 μmol/L) under stirring at 37°C for 5 min. For ex vivo platelet aggregation, PRP was incubated at 37°C for 5 min and stimulated with ADP (5 μmol/L) under stirring at 37 °C. The platelet aggregation was terminated by adding ethylenediaminetetraacetic acid (EDTA; 10 mM). Total protein was prepared using RIPA lysis buffer and protein content was determined by bicinchoninic acid (BCA) protein assay kit. Equal amounts of platelet proteins (30 μg) were separated on 10% SDS polyacrylamide gel electrophoresis (SDS-PAGE) and then transferred to poly vinylidene difluoride (PVDF) membranes and subjected to western blot. Blots were blocked with TBS-Tween 20 containing 5% BSA and probed with primary antibodies diluted in blocking solution at 4°C overnight followed by incubation with the corresponding HRP secondary antibodies. The protein bands were visualized using enhanced chemiluminescence (ECL).
FIGURE 4 Naringenin inhibits PI3K-mediated signaling in ADP-induced platelets. Washed rat platelets were preincubated without or with naringenin at 37°C for 5 min, and then stimulated with ADP (10 μmol/L) under stirring for 5 min. Platelet proteins were then extracted and analyzed by immunoblotting using PI3Kp110β antibody (A) and phospho-specific antibodies such as Akt^Ser473 (B), Akt^Thr308 (C), ERK1/2^Thr202/Tyr204 (D) and GSK3β^Ser9 (E). Total level of GAPDH was measured on each sample as a loading control. The blots shown are representative of three separate experiments. The relative protein expression levels were quantified by ImageJ 1.47v software. The level of relative protein expression obtained with vehicle control (0 μM) was taken as 1. R represents the level of relative protein expression in resting platelets. Data are expressed as means ± SD (n = 3). *p < 0.05, **p < 0.01, ***p < 0.001 compared with the vehicle control group.

[2] = system: PRP (platelet-rich plasma); assay: ADP (10 μmol/L)-induced aggregation of PRP in vitro; type: cell-based, rat; conditions: for Aggregation (%): raw data
Procedure: (§1) Washed rat platelets were prepared as described previously ([Gao et al., 2011]) with a minor modification. Briefly, rat blood was drawn from the abdominal aorta into the siliconized vacutainers containing 1:9 (v/v) 3.8% sodium citrate, supplemented with 100 ng/ml prostaglandin E1 (PGE1) and centrifuged at 300 × g for 6 min at room temperature. Platelet-rich plasma (PRP) was obtained, and after the addition of 100 ng/ml PGE1, platelets were pelleted at 900 × g for 10 min. Platelets were washed once in Tyrode’s buffer (12 mM NaHCO3, 138 mM NaCl, 5.5 mM glucose, 2.9 mM KCl, 2 mM MgCl2, 0.42 mM NaH2PO4, 10 mM HEPES, pH 7.4) containing 100 ng/ml PGE1, and finally resuspended in Tyrode’s buffer containing 0.02 U/mL apyrase to a final concentration of 4×10^8 cells/mL. Washed platelets were preincubated with vehicle (0.4% dimethyl sulfoxide) or various concentrations of naringenin in the presence of 2 mM CaCl2 for 5 min at 37°C, and then further stimulated by ADP (10 μM), thrombin (0.2 U/mL) or collagen (2 μg/ml). The maximum platelet aggregation rate was detected within 5 min with continuous stirring.
Platelet aggregation was induced by ADP using washed platelets and PRP. Washed platelets were preincubated with vehicle (containing 0.4% DMSO) or different doses (100, 200, 400, and 800 μM) of naringenin or naringin for 5 min before activation with ADP (10 μM) for 5 min. […] For example, naringenin, at doses of 100 and 800 μM, decreased ADP-induced platelet aggregation to 54.5 ± 6.2% and 6.3 ± 1.7%, respectively (n = 6; p < 0.001, control group platelet aggregation was taken as 100%) (Figure 1F). […] Because dietary flavonoids have been reported to bind plasma proteins and cause the lowering of inhibitory potency in PRP ([Wright et al., 2013]), the ability of naringenin and naringin on platelet function in PRP was investigated to compare their effects with washed platelets.
(§2) FIGURE 1 Effects of naringenin and naringin on platelet aggregation. Chemical structure of naringin (A) and naringenin (B). The effects of naringin (C) or naringenin (D) on PRP were measured following stimulation with 10 μmol/L ADP. Rat washed platelet aggregation performed with or without different concentrations of naringin (E) or naringenin (F) was recorded after stimulation with 10 μmol/L ADP. Similarly, Washed platelet aggregation performed with vehicle or various concentrations of naringenin was recorded after stimulation with 0.2 U/mL thrombin (G) or 2 μg/ml collagen (H). WP represents washed platelets. Data are expressed as means ± SD (n = 6), the level of aggregation obtained at 5 min with vehicle-treated samples (0 μM) was taken as 100%. *p < 0.05, **p < 0.01, ***p < 0.001 compared with the vehicle control group.

washed rat platelets = assay: Collagen (2 μg/ml)-induced aggregation of washed platelets; type: cell-based; conditions: for Aggregation (%) / Aggregation % of control: washed platelets, single replicates; for Aggregation (%): raw data
Procedure: as §1, §2

## O=C1C[C@@H](c2ccc(O)cc2)Oc2cc(O)cc(O)c21 [Naringenin]
[1]; 200 μM
  P-selectin exposure: 58.33 ± 7.86%
  P-selectin (%): 50.70% and 58.70% and 65.60%
[1]; 400 μM
  P-selectin exposure: 35.12 ± 11.91%
  P-selectin (%): 22.54% and 46.23% and 36.58%
[1]; 800 μM
  P-selectin exposure: 31.56 ± 7.26%
  P-selectin (%): 24.10% and 32.22% and 38.35%
PI3Kp110β; 100 μM
  PI3Kp110β / GAPDH: 0.2747 and 0.1851 and 0.4122
  PI3Kp110β / GAPDH (Fold to ADP only): 0.5384 Fold to ADP only and 0.3629 Fold to ADP only and 0.8080 Fold to ADP only
PI3Kp110β; 200 μM
  PI3Kp110β / GAPDH: 0.2677 and 0.1570 and 0.3210
  PI3Kp110β / GAPDH (Fold to ADP only): 0.5248 Fold to ADP only and 0.3077 Fold to ADP only and 0.6292 Fold to ADP only
PI3Kp110β; 400 μM
  PI3Kp110β / GAPDH: 0.1072 and 0.1459 and 0.2766
  PI3Kp110β / GAPDH (Fold to ADP only): 0.2102 Fold to ADP only and 0.2861 Fold to ADP only and 0.5422 Fold to ADP only
PI3Kp110β; 800 μM
  PI3Kp110β / GAPDH: 0.0408 and 0.0426 and 0.1130
  PI3Kp110β / GAPDH (Fold to ADP only): 0.0801 Fold to ADP only and 0.0835 Fold to ADP only and 0.2214 Fold to ADP only
[2]; ADP-induced, 100 μM
  decrease of aggregation in PRP: 18%
[2]; PRP, ADP 10 μmol/L, compound 100 μM, single replicates
  Aggregation (%): 44.9% and 44.8% and 49.7% and 47.9% and 48.3%
[2]; PRP, ADP 10 μmol/L, compound 100 μM, single replicates, 100 µM
  Aggregation % of control: 78.3 % of control and 86.8 % of control and 83.7 % of control and 79.5 % of control and 84.4 % of control
[2]; PRP, ADP 10 μmol/L, compound 200 μM, single replicates
  Aggregation (%): 42.5% and 44.3% and 48.9% and 47.2% and 39.7%
[2]; PRP, ADP 10 μmol/L, compound 200 μM, single replicates, 200 µM
  Aggregation % of control: 77.4 % of control and 85.4 % of control and 82.4 % of control and 69.3 % of control and 74.1 % of control
[2]; PRP, ADP 10 μmol/L, compound 400 μM, single replicates
  Aggregation (%): 39.7% and 31.6% and 37.9% and 34.1% and 44.8%
[2]; PRP, ADP 10 μmol/L, compound 400 μM, single replicates, 400 µM
  Aggregation % of control: 66.9 % of control and 69.3 % of control and 55.2 % of control and 66.2 % of control and 59.6 % of control and 78.3 % of control
[2]; PRP, ADP 10 μmol/L, compound 800 μM, single replicates
  Aggregation (%): 30.9% and 33.6% and 36.0% and 28.9% and 28.6% and 38.4%
[2]; PRP, ADP 10 μmol/L, compound 800 μM, single replicates, 800 µM
  Aggregation % of control: 58.7 % of control and 62.9 % of control and 50.5 % of control and 50.0 % of control and 67.1 % of control
[2]; Rattus norvegicus, PRP, ADP 10 μmol/L, compound 100 μM, single replicates, read-out: Aggregation % of control
  activity at 100 µM: 78.4%
[2]; Rattus norvegicus, PRP, ADP 10 μmol/L, compound 200 μM, single replicates, read-out: Aggregation % of control
  activity at 200 µM: 74.2%
[2]; Rattus norvegicus, PRP, ADP 10 μmol/L, compound 800 μM, single replicates, read-out: Aggregation % of control
  activity at 800 µM: 54%
Washed rat platelets
  IC50: ~236 µM
Washed rat platelets; Rattus norvegicus, Platelet
  IC50: 236 ± 33.1 µM
Washed rat platelets; 100 μM
  Aggregation (%): 32.0% and 39.6% and 43.9% and 35.0% and 27.0% and 45.0%
  Aggregation % of control: 75.4 % of control and 93.4 % of control and 103.5 % of control and 82.5 % of control and 63.6 % of control and 106.1 % of control
Washed rat platelets; 200 μM
  Aggregation (%): 24.1% and 37.0% and 14.9% and 25.4% and 24.3% and 10.0%
  Aggregation % of control: 56.8 % of control and 87.2 % of control and 35.1 % of control and 59.9 % of control and 57.3 % of control and 23.6 % of control
Washed rat platelets; 400 μM
  Aggregation (%): 10.0% and 14.0% and 11.7% and 7.9% and 15.4% and 4.9%
  Aggregation % of control: 23.6 % of control and 33.0 % of control and 27.6 % of control and 18.6 % of control and 36.3 % of control and 11.6 % of control
Washed rat platelets; 800 μM
  Aggregation (%): 7.3% and 9.1% and 9.0% and 4.9% and 4.2% and 14.0%
  Aggregation % of control: 17.2 % of control and 21.5 % of control and 21.2 % of control and 11.6 % of control and 9.9 % of control and 33.0 % of control
